Measured values taken from patent US10239884B2, “Coelenterazine compounds and uses thereof” (KEIO UNIVERSITY, priority 2017, dated 2019).

Tests used:
RLuc8.6-535 [1] = molecular target: T1, RLuc8.6-535 (Renilla reniformis, UniProt P27652, A123S/A143M/A55T/C124A/D154M/D162E/E155G/I163L/K136R/M185L/M253L/S130A/S287L); assay type: biochemical; set-up: expressed in transfected cells; host or cells: COST cells (so in the source); conditions: 2 μM substrate in PBS pH 7.4, cell lysate, maximum intensity over 1 second, relative value
Description: (§1) The luciferases were respectively expressed in COST cells using an expression vector (pcDNA3.1(+), commercially available from Invitrogen) comprising the sequence encoding native Renilla Luciferase (RLuc) (trade name pGL4.75, commercially available from Promega) or an expression vector (trade name pcDNA3.1(+), commercially available from Invitrogen) comprising the sequence encoding a RLuc derivative RLuc8 or RLuc8.6-535 (Reference: Loening, A. M. et al., Nat. Methods, 2007, 4, 641-643.). The cells were lysed using a Renilla Luciferase Lysis Buffer (E291A, Promega), and the lysate was directly used as an enzyme solution. […] Bioluminescence was measured according to the protocol of Renilla Luciferase Assay System (Cat. No. E 2810; Promega). The luminescent substrate was dissolved in methanol to prepare a 2 mM solution. The solution was diluted to 2 μM with PBS buffer (pH 7.4), and the diluted solution was used as a substrate solution. To 200 μL of the substrate solution, 4 μL of the cell lysate containing RLuc, RLuc 8 or RLuc8.6-535 was added to start the luminescent reaction. The luminescence intensity was measured with a Berthold Lumat LB 9507 for 1 second, and indicated by the maximum luminescence intensity (I). The luminescence intensity of the native CTZ by RLuc8 was set to be 1.0, and the other bioluminescence intensities were normalized to be relative values to that of native CTZ.

RLuc8.6-535 [2] = molecular target: T1, RLuc8.6-535; assay type: biochemical; set-up: expressed in transfected cells; host or cells: COST cells (so in the source); conditions: bioluminescence spectrum, ATTO LumiFL
Experimental: (§2) As in the method for measuring bioluminescence intensity described above, luminescence spectrum was measured according to the protocol of Renilla Luciferase Assay System (Cat. No. E 2810; Promega). The luminescence spectrum was measured using ATTO LumiFL. The maximum luminescence intensities were normalized to be relative values to 1.0 upon determination of the maximum luminescence wavelength.

RLuc8 [3] = molecular target: T2, RLuc8 (Renilla reniformis, UniProt P27652, A143M/A55T/C124A/K136R/M185V/M253L/S130A/S287L); assay type: biochemical; conditions: 2 μM substrate in PBS pH 7.4, cell lysate, maximum intensity over 1 second, relative value
T2 construct: expressed in transfected cells; host or cells: COST cells (so in the source)
Description: as §1

RLuc8 [4] = molecular target: T2, RLuc8; assay type: biochemical; conditions: bioluminescence spectrum, ATTO LumiFL
Experimental: as §2

[5] = molecular target: T3, Renilla Luciferase (RLuc) (Renilla reniformis, UniProt P27652); conditions: cited from earlier work
T3 sequence (P27652 1-311): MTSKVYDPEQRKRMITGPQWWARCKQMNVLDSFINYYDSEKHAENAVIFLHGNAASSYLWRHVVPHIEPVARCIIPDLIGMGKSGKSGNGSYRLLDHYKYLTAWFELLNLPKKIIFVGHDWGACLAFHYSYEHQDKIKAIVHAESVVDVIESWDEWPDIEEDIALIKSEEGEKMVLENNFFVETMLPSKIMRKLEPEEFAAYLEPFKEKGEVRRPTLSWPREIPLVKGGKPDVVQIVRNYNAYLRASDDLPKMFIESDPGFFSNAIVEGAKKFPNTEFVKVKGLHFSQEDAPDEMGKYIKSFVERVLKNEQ

T2 sequence (P27652 whole entry A55T/C124A/S130A/K136R/A143M/M185V/M253L/S287L): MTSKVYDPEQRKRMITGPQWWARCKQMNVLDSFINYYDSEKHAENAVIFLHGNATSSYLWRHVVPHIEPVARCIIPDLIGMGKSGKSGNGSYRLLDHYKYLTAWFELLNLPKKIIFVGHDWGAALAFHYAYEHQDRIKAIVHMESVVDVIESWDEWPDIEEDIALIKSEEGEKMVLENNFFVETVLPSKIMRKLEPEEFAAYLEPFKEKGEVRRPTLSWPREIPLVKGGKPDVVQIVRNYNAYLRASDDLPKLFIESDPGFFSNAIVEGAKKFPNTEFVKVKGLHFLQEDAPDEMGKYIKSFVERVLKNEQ
T1 sequence (P27652 whole entry A55T/A123S/C124A/S130A/K136R/A143M/D154M/E155G/D162E/I163L/M185L/M253L/S287L): as the sequence (P27652 whole entry A55T/C124A/S130A/K136R/A143M/M185V/M253L/S287L) above, with A123S, D154M, E155G, D162E, I163L, V185L counted along it

| SMILES | RLuc8.6-535 luminescence intensity (%) (RLuc8.6-535 [1]) | RLuc8.6-535 half-width (nm) (RLuc8.6-535 [2]) | RLuc8.6-535 maximum luminescence wavelength (nm) (RLuc8.6-535 [2]) | RLuc8 luminescence intensity (%) (RLuc8 [3]) | RLuc8 half-width (nm) (RLuc8 [4]) | RLuc8 maximum luminescence wavelength (nm) (RLuc8 [4]) | luminescence intensity relative to the native RLuc luminescence system [5] | shift of luminescence wavelength to the shorter wavelength side compared to native CTZ [5] | luminescence wavelength ([5]; emits light at around) |
| --- | --- | --- | --- | --- | --- | --- | --- | --- | --- |
| O=c1c(Cc2ccc(O)cc2)nc2c(Cc3ccccc3)[nH]c(-c3ccc(OCCCCO)cc3)cn1-2 [6-Alkyl4OH-CTZ] | 59.8 | [60] nm | 412 | 11.8 | [69] nm | 404 nm | – | – | – |
| CCCCOc1ccc(-c2cn3c(=O)c(Cc4ccc(O)cc4)nc-3c(Cc3ccccc3)[nH]2)cc1 [Example 6-Alkyl3-CTZ] | 39.6 | [60] nm | 412 | 8.07 | [46] nm | (413) nm | – | – | – |
| O=c1c(Cc2ccc(O)cc2)nc2c(Cc3ccccc3)[nH]c(-c3ccc(OCCO)cc3)cn1-2 [6-Alkyl2OH-CTZ] | 43.2 | [56] nm | 411 | 15.0 | [59] nm | 411 nm | – | – | – |
| Cc1ccc(-c2cn3c(=O)c(Cc4ccccc4)nc-3c(Cc3ccccc3)[nH]2)cc1 [6-Methyl-2H-CTZ] | 25.3 | [49] nm | 411 | 1.44 | [45] nm | 408 nm | – | – | – |
| O=c1c(Cc2ccccc2)nc2c(Cc3ccccc3)[nH]c(-c3ccccc3)cn1-2 [DeepBlueC (trade name), reference compound] | 5.80 | [51] nm | 410 | 2.30 | [57] nm | 416 nm | about 4% | about 80 nm | around 400 nm |
| O=c1c(Cc2ccccc2)nc2c(Cc3ccccc3)[nH]c(-c3ccc(OCCCCCO)cc3)cn1-2 [6-Alkyl5OH-2H-CTZ] | 18.0 | [68] nm | 406 | 2.88 | [70] nm | 403 nm | – | – | – |
| CCc1ccc(-c2cn3c(=O)c(Cc4ccc(O)cc4)nc-3c(Cc3ccccc3)[nH]2)cc1 [Example 6-Ethyl-CTZ] | 29.4 | [60] nm | 406 | 2.68 | – | (410) nm | – | – | – |
| COCCCOc1ccc(-c2cn3c(=O)c(Cc4ccccc4)nc-3c(Cc3ccccc3)[nH]2)cc1 [6-Alkyl3OMe-2H-CTZ] | 29.3 | [53] nm | 413 | 2.93 | [49] nm | 416 nm | – | – | – |
| CCCCOc1ccc(-c2cn3c(=O)c(Cc4ccccc4)nc-3c(Cc3ccccc3)[nH]2)cc1 [6-Alkyl3-2H-CTZ] | 28.4 | [53] nm | 413 | 2.00 | [50] nm | 411 nm | – | – | – |
| O=c1c(Cc2ccccc2)nc2c(Cc3ccccc3)[nH]c(-c3ccc(OCCCO)cc3)cn1-2 [6-Alkyl3OH-2H-CTZ] | 23.9 | [56] nm | 413 | 5.03 | [65] nm | 411 nm | – | – | – |
| CCc1ccc(-c2cn3c(=O)c(Cc4ccccc4)nc-3c(Cc3ccccc3)[nH]2)cc1 [6-Ethyl-2H-CTZ] | 18.0 | [50] nm | 411 | 0.62 | – | (402) nm | – | – | – |
| O=c1c(Cc2ccccc2)nc2c(Cc3ccccc3)[nH]c(-c3ccc(OCCCCO)cc3)cn1-2 [6-Alkyl4OH-2H-CTZ] | 23.9 | [68] nm | 405 | 3.45 | [69] nm | 404 nm | – | – | – |
| COCc1ccc(-c2cn3c(=O)c(Cc4ccccc4)nc-3c(Cc3ccccc3)[nH]2)cc1 [6-Ether-2H-CTZ, reference compound] | 2.17 | [53] nm | 406 | 0.36 | – | (393) nm | – | – | – |
| O=c1c(Cc2ccccc2)nc2c(Cc3ccccc3)[nH]c(-c3ccc(OCCO)cc3)cn1-2 [6-Alkyl2OH-2H-CTZ] | 6.24 | [68] nm | 407 | 6.21 | [65] nm | 413 nm | – | – | – |
| COCc1ccc(-c2cn3c(=O)c(Cc4ccc(O)cc4)nc-3c(Cc3ccccc3)[nH]2)cc1 [Example 6-Ether-CTZ, reference compound] | 8.94 | [49] nm | 411 | 0.85 | – | (420) nm | – | – | – |
